The text below walks through data of ChEMBL document CHEMBL4308844, “Allosteric Modulation of Class A GPCRs: Targets, Agents, and Emerging Concepts” (J Med Chem, 2018).

Assay [1] concerns the target Cannabinoid receptor 1 (Mus musculus) (UniProt P47746). Briefly: Positive allosteric modulation of CB1R in MF1 mouse brain membranes assessed as increase in anandamide-stimulated [35S]GTPgammaS binding after 60 mins relative to control. The class given is functional, cell membranes.
Assay [2] shares this target. Briefly: Positive allosteric modulation of CB1R in MF1 mouse brain membranes assessed as increase in [3H]WIN55212-2 binding after 60 mins relative to control. The class given is cell membranes.
For assay [3] the target is unchanged. Briefly: Positive allosteric modulation of CB1R in MF1 mouse brain membranes assessed as increase in [3H]CP55940 binding after 60 mins relative to control. In kind it is cell membranes.
The target in assay [4] is T1, C-X-C chemokine receptor type 1 (Homo sapiens, UniProt P25024).
T1 sequence (P25024 whole entry): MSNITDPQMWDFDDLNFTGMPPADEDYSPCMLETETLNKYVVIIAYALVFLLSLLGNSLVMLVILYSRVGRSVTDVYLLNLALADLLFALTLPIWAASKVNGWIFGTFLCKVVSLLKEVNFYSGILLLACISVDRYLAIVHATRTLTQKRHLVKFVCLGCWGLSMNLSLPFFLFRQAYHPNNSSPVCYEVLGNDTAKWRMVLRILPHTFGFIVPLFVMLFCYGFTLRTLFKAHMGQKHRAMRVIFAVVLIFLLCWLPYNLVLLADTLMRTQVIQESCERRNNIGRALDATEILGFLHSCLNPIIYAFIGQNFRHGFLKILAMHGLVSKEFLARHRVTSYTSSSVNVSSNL
Briefly: Inhibition of CXCR1 (unknown origin).

The target of assay [5] is T2, C-X-C chemokine receptor type 2 (Homo sapiens, UniProt P25025).
T2 sequence (P25025 whole entry): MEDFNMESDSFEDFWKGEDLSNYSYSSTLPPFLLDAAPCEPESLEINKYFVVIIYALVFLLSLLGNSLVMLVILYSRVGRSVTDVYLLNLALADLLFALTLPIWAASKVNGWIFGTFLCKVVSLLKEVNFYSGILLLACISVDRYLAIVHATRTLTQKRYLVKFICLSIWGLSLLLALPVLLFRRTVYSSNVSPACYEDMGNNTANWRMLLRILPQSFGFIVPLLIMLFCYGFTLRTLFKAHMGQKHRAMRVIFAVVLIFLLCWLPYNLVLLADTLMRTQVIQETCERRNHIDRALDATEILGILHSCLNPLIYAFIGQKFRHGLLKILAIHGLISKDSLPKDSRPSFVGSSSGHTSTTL
Briefly: Inhibition of CXCR2 (unknown origin).

In assay [6] the target is D(2) dopamine receptor (Homo sapiens) (UniProt P14416). Briefly: Negative allosteric modulation of D2R (unknown origin) assessed as decrease in [3H]NPA binding at 1 uM relative to control.
The target is the same in assay [7]. Briefly: Negative allosteric modulation of D2R (unknown origin) assessed as decrease in [3H]NPA binding at 10 uM relative to control.
Assay [8] concerns the target T3, 5-hydroxytryptamine receptor 2C (Homo sapiens) (UniProt P28335).
T3 sequence (whole entry): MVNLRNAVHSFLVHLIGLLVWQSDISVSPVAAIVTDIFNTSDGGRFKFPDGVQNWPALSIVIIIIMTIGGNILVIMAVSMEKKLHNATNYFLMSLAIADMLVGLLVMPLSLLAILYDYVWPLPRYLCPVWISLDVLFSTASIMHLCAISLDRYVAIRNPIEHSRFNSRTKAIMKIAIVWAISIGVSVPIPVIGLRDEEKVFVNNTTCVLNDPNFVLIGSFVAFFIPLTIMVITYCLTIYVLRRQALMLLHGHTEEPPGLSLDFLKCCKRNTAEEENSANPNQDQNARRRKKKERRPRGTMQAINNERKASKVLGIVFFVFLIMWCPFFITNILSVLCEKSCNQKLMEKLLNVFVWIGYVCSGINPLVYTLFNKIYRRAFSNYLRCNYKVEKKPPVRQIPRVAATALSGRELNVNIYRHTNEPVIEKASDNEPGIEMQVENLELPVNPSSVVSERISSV
Briefly: Positive allosteric modulation of 5-HT2C receptor (unknown origin) assessed as increase in 5-HT-induced displacement of [3H]mesulergine by measuring fold reduction in 5-HT Ki at 20 uM relative to control.

Assay [9] deals with T3, 5-hydroxytryptamine receptor 2C (Homo sapiens). Briefly: Agonist activity at 5-HT2C receptor (unknown origin) expressed in HEK293 cells assessed as IP3 release at 10 uM relative to 5-HT maximal response.
In assay [10] the target is T4, Substance-K receptor (Homo sapiens) (UniProt P21452).
T4 sequence (whole entry): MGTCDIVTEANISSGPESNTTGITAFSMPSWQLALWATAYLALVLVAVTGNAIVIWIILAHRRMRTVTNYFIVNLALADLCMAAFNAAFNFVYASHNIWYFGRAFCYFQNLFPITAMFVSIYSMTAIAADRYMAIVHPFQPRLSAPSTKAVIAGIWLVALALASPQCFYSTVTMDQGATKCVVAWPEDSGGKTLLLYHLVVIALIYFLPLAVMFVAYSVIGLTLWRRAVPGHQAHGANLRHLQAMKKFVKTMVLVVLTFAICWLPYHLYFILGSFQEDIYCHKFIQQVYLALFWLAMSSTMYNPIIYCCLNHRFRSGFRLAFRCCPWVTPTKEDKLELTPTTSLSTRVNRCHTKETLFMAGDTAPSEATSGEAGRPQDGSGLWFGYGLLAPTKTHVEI
Briefly: Negative allosteric modulation of NK2 receptor (unknown origin) assessed as decrease in agonist-induced cAMP production at 10 uM by cell based FRET assay relative to control. The class given is functional.

Assay [11] concerns the target T5, C-X-C chemokine receptor type 3 (Homo sapiens) (UniProt P49682).
T5 sequence (whole entry): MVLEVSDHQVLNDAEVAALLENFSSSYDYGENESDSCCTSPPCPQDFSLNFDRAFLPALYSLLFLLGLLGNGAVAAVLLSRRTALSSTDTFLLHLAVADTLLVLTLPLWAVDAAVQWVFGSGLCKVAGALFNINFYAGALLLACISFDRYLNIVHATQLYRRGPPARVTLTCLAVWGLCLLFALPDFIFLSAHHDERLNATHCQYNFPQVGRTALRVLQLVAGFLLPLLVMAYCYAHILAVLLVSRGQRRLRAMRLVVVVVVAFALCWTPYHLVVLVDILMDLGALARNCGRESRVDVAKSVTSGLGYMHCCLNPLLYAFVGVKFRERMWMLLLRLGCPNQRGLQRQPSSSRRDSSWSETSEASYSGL
Briefly: Inhibition of [3H]RAMX3 binding to CXCR3 (unknown origin) relative to control. The settings on record: concentration not given here.

Assay [12] has as its target T6, Muscarinic acetylcholine receptor M4 (Rattus norvegicus, UniProt P08485).
T6 sequence (P08485 whole entry): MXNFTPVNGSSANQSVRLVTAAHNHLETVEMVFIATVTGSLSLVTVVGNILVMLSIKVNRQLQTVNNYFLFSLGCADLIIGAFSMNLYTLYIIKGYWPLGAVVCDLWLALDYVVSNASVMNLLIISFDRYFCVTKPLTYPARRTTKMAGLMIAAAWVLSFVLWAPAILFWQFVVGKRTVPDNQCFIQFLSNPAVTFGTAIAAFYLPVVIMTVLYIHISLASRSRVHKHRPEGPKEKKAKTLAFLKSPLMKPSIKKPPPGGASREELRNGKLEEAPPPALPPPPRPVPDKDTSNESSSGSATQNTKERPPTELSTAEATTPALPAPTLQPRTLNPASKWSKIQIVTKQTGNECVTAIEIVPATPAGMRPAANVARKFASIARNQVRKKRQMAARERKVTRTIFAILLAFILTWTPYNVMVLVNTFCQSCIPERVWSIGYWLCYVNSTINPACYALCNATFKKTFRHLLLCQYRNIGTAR
Briefly: Positive allosteric modulation of rat M4 AchR.

For assay [13], the target named is T7, Muscarinic acetylcholine receptor M4 (Homo sapiens, UniProt P08173).
T7 sequence (P08173 whole entry): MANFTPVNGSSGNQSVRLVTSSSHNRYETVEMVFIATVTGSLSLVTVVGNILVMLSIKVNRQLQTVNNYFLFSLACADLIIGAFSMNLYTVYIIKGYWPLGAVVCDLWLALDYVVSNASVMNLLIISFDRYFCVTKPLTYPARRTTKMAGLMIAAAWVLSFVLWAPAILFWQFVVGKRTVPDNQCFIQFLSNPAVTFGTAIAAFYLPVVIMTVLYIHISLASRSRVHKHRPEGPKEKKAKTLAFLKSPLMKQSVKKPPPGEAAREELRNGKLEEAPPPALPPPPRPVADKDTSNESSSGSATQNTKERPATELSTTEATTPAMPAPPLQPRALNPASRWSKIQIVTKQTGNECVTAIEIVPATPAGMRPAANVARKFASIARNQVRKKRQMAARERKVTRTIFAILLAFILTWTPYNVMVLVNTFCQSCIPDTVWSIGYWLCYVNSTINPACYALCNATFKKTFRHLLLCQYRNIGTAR
Briefly: Positive allosteric modulation of human M4 AchR.

Assay [14] has as its target T8, Muscarinic acetylcholine receptor M4 (Homo sapiens) (UniProt P08173).
T8 sequence (whole entry): T7 sequence (P08173 whole entry)
Briefly: Positive allosteric modulation of human M4 AchR expressed in CHO cells assessed as increase in acteylcholine-induced calcium mobilization by FLIPR assay. In kind it is functional, cell-based.

For assay [15], the target named is T9, Muscarinic acetylcholine receptor M5 (Homo sapiens) (UniProt P08912).
T9 sequence (whole entry): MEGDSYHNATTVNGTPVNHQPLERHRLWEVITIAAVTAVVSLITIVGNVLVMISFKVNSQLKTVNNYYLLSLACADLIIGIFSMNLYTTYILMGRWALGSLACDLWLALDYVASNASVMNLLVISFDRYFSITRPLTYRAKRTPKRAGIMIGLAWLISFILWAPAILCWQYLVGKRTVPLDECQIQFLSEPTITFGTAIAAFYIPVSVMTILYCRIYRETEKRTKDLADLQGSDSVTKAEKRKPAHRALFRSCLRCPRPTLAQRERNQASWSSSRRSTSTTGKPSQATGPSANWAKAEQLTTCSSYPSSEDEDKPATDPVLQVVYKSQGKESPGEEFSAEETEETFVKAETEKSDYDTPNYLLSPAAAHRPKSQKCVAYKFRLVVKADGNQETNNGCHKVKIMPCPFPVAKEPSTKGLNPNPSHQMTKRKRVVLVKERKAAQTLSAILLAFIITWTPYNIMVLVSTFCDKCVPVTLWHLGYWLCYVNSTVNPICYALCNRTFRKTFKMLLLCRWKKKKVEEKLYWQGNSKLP
Briefly: Positive allosteric modulation of M5 AchR (unknown origin) assessed as increase in acetylcholine-induced response relative to control.

The target of assay [16] is Cannabinoid receptor 1 (Homo sapiens) (UniProt P21554). Briefly: Positive allosteric modulation of human CB1R assessed as potentiation of CP55940-induced calcium mobilization at […] by cell based assay relative to control. The class given is functional.
The target in assay [17] is T10, Muscarinic acetylcholine receptor M1 (Homo sapiens, UniProt P11229).
T10 sequence (P11229 whole entry): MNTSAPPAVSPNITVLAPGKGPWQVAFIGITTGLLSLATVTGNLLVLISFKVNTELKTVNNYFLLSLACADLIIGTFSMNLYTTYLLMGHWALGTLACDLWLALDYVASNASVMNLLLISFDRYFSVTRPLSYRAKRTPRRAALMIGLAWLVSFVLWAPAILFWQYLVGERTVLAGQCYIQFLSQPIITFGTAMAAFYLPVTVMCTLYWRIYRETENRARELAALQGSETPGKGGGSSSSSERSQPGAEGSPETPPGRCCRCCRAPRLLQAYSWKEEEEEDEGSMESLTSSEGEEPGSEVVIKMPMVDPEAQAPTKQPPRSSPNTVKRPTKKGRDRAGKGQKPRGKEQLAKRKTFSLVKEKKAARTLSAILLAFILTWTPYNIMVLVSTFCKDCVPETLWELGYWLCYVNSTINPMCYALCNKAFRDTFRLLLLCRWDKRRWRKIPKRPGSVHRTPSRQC
Briefly: Positive allosteric modulation of M1 AchR (unknown origin).

Chain of D(2) dopamine receptor (Homo sapiens) (P14416 whole entry): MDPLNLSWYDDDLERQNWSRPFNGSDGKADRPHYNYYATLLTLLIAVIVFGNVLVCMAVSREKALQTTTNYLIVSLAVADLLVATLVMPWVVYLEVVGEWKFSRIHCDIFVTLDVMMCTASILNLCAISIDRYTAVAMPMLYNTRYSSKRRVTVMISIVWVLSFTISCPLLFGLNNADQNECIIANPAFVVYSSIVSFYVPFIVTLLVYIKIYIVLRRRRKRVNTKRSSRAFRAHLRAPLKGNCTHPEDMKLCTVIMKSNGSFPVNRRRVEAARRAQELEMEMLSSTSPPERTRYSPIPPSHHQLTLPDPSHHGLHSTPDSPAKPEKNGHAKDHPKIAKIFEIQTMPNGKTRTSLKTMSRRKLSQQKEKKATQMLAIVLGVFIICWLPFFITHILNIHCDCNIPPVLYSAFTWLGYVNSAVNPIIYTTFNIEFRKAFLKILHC
Chain of Cannabinoid receptor 1 (Mus musculus) (P47746 whole entry): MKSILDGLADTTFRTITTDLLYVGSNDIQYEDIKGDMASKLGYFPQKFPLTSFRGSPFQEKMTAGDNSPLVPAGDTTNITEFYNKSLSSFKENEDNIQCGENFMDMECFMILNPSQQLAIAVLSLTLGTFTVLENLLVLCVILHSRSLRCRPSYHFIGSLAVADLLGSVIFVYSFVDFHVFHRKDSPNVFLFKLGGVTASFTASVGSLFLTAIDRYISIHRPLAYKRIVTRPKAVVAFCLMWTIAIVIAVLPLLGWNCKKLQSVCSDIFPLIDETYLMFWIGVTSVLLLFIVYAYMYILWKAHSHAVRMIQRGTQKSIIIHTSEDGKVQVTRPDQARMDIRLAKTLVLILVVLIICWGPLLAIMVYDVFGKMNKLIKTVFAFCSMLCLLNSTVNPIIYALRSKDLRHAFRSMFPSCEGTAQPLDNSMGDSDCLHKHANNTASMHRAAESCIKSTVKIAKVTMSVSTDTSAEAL
Chain of Cannabinoid receptor 1 (Homo sapiens) (P21554 whole entry): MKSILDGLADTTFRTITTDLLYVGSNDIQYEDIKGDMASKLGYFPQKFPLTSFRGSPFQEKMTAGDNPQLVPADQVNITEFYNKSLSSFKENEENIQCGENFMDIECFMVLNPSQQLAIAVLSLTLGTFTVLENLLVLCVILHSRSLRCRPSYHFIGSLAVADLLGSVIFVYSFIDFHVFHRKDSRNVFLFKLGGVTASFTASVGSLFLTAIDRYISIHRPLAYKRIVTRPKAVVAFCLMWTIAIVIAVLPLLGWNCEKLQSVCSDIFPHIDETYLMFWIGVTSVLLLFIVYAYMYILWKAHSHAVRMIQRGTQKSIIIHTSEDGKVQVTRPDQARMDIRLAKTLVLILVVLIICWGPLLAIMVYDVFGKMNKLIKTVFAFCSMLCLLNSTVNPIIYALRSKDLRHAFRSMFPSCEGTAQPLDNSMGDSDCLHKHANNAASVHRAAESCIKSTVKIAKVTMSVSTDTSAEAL

On to `Cc1ccc2c(C(C[N+](=O)[O-])c3cccs3)c(-c3ccccc3)[nH]c2c1` (stereo not given), for which the Activity in [1] turned out to be 40%. Also, the results for the maximum response (Emax) in assay [2] and in assay [3] were 225% and 207%, respectively.
Take `C[C@@H](C(=O)NS(C)(=O)=O)c1ccc(OS(=O)(=O)C(F)(F)F)cc1`: the half-maximal inhibitory concentration (IC50) in assay [4] and in assay [5] was 0.1 nM throughout.
In the case of `CC1(C)S[C@@H]2CC[C@]3(CCCN3C(=O)[C@@H]3CCCN3)C(=O)N2[C@H]1C(N)=O`, the fold change (FC) in assay [6] is 2.7; in assay [7], 2.8.
For the molecule `CC1(C)S[C@@H]2CC[C@]3(CCCN3C(=O)[C@@H]3CCCN3)C(=O)N2[C@@H]1C(N)=O`, the results for the fold change (FC) in assay [6] and in [7] were 2.7 and 2.8, respectively.
Take `CCCCCCCCCCC[C@@H]1CCN[C@H](C(=O)N[C@@H]([C@H]2O[C@H](SC)[C@H](O)[C@@H](O)[C@H]2O)[C@H](C)Cl)C1`: the fold change (FC) in assay [8] amounted to 25. In addition, the Emax in assay [9] was below 71%.
For `N#CCN(Cc1ccccc1)Cc1ccc2ccccc2c1`, in [10], the inhibition was found to be 30%.
In the case of `CCOc1ccc(-n2c(C(C)N(CC3CCN(Cc4ccc(C5(C(F)(F)F)N=N5)cc4)CC3)C(=O)Cc3ccc(F)c(C(F)(F)F)c3)nc3ncccc3c2=O)cc1` (stereo not given), in assay [11], the inhibition worked out at 80%.
`Cc1cc(OCc2ccncc2)nc2sc(C(=O)NCc3cccc(F)c3F)c(N)c12`: the half-maximal effective concentration (EC50) in assay [12] was 2400 nM; in assay [13], 95 nM.
As to `COc1nc2sc(C(=O)NC3CC3)c(N)c2c(C)c1Cl`, the Kb in [14] was determined as 200 nM.
For the molecule `CCN(Cc1ccccc1C(F)(F)F)C(=O)C1CCN(S(=O)(=O)c2ccc3[nH]ncc3c2)CC1`, the fold change (FC) in [15] worked out at 9.3.
As to `Cc1ccc([C@H]2CC3CCC([C@H]2c2cc(-c4ccc(Cl)cc4)no2)N3C)cc1` (stereo not given in full), the Emax in [16] was found to be 36%.
For the molecule `COc1ccc(Cn2cc(C(=O)N[C@H]3CCCC[C@@H]3O)c3ncccc32)cc1`, the concentration for a half-maximal effect (EC50) in assay [17] amounted to 1800 nM.
The same measure, in the same setting: with `Cc1cc(NC(=O)CS(=O)(=O)c2cn(Cc3ccc(-c4cnn(C)c4)nc3)c3cc(F)cc(F)c23)no1` the figure was 310 nM.
